Laboratory results taken from patent US20250241894A1, “TREATMENT OF MENTAL DISORDERS” (GH RESEARCH IRELAND LIMITED, priority 2022, published 2025).

Columns and labels:
human hepatocytes [1] = test: Metabolism identification study in human hepatocytes; settings: for Relative Proportion of compounds identified: 5-MeO-DMT free base 10 μM, up to 120 minutes
Description: For incubations with cryopreserved hepatocytes, the 2 mM stock solution was diluted with Leibovitz L-15 medium to a concentration of 20 μM or 2 μM. An aliquot (250 μL) of the 20 μM and 2 μM test substance formulations was added to each hepatocyte incubation sample (250 μL), as appropriate, so that the final test substance concentration in the incubations was 10 μM or 1 μM, respectively, and incubations contained less than 1% (v/v) solvent.
Incubations were performed at ca. 37° C. in a shaking water bath (total incubation volume 0.5 mL). For 1 μM, incubations were terminated after 0, 5, 10, 20, 30, 60 and 120 minutes, by the addition of ice-cold acetonitrile (0.5 mL).
The samples were vortex mixed and centrifuged at ca 13,000 rpm for 10 minutes at room temperature. Following centrifugation, the protein-free supernatants were removed for analysis.
Blank control incubations were carried out with Leibovitz L-15 medium in place of the test substance. No cells control samples were performed with Leibovitz L-15 medium in place of hepatocytes. Aliquots of the blank control samples were taken at 120 minutes, while no cells control samples were taken at 0, 30 and 120 for 1 μM incubations and at 0 and 120 minutes for 10 μM incubations.
All 1 μM incubations were performed in duplicate, while all 10 μM incubations were performed in singlet. All samples were stored at −80° C. (nominal) prior to analysis.
Prior to sample analysis a 100 μL aliquot of each sample was evaporated to near dryness under a steady stream of nitrogen at room temperature, and subsequently reconstituted in 50 μL of mobile phase A (0.1% formic acid in water). Each sample (0, 30 and 120-minute, 10 μM) was analysed using accurate mass LC-MS to determine relative levels of parent compound at each time-point, and determine the profile of metabolites formed. Appropriate blank and control samples were also analysed. The 10 and 60-minute, 10 μM incubation samples were not analysed and were stored at −80° C. (nominal).
Data were interrogated for the presence of metabolites by comparison of retention times with the test substance reference standard and based on the accurate masses of potential metabolites using screening software (UNIFI version 1.9.4), and user defined search parameters. To confirm a suspected metabolite, the measured accurate mass of the peak detected in the sample used for structural elucidation had to be within 5 ppm of the theoretical mass in order to confirm the molecular formula.

human hepatocytes [2] = test: Metabolic stability in Hμrel human hepatocyte co-culture assay
human plasma protein = test: Binding of 5-MIAA to human plasma protein; type: in vitro ADME
Description: Binding to human plasma protein was determined. Reported are the unbound fraction (fu) for three replicates as well as the mean unbound fraction, the standard deviation and the mean % recovery (Table 8).

Water solubility = type: physicochemical
[3] = rat; cited from earlier work
[4] = Pharmacokinetics of 5-MeO-DMT and bufotenine after a single inhaled dose; type: in vivo, human; settings: 15 minutes after administration of 5-MeO-DMT
Description: Blood samples were obtained at 1; 2; 4; 7; 10; 15; 20; 30; 45 min and 1; 1.5; 2; 3; 4 hours after administration.
PK parameters were generated by algebraic analysis of the concentration versus time plots for each individual. The analysis was carried out using the software Phoenix WinNonlin 6.3.

Compound: COc1ccc2[nH]cc(CCO)c2c1 [5-methoxytryptophol, 5-Methoxyindole-3-ethanol]
- Relative Proportion of compounds identified (human hepatocytes [1]): 25%
- Presence in subsequent assays (human hepatocytes [1]): failed to detect
- Metabolic turnover (human hepatocytes [2]; hepatocytes): high metabolic turnover
- Time to complete disappearance (human hepatocytes [2]; hepatocytes): 24 h

Compound: 5-Methoxyindole acetic acid [5-MIAA]
- Plasma binding (mean fraction unbound) (human plasma protein): ~50%
- Time until removed from circulation for urinary excretion (human plasma protein; assuming glomerular filtration rate 90-120 ml/min): 1 to 2 h
- Presence in subsequent assays (human hepatocytes [1]): predominant metabolite
- Remaining abundance (human hepatocytes [2]; after 72 h, hepatocytes, 1 and 10 μM): 75-82%
- Metabolic turnover (human hepatocytes [2]; hepatocytes): low metabolic turnover
- Disappearance with stromal cell controls (human hepatocytes [2]; stromal cells): no disappearance

Compound: COc1ccc2[nH]cc(CC[N+](C)(C)[O-])c2c1 [5-MeO-DMT-N-oxide]
- Water solubility (Water solubility): water soluble
- Excretion [3]: rapid excretion
- Relative Proportion of compounds identified (human hepatocytes [1]): 1%

Compound: CN(C)CCc1c[nH]c2ccc(O)cc12 [bufotenine, Bufotenine]
- Detection in human serum [4]: In no case is it detected
- Relative Proportion of compounds identified (human hepatocytes [1]): 5%

Compound: CN(C)CCc1c[nH]c2ccc(O[C@@H]3O[C@H](C(=O)O)[C@@H](O)[C@H](O)[C@H]3O)cc12 [Bufotenine glucuronide]
- Detection in the hepatocyte assay (human hepatocytes [1]): not detected
